Data from patent US10968222B2, “2-azabicyclo hexane JAK inhibitor compound” (THERAVANCE BIOPHARMA R&D IP, LLC, priority 2018, dated 2021).

How the values were obtained:
SRC = biological target: T1, SRC (Homo sapiens, UniProt P12931); test: Kinome screen, SRC; format: binding; details: screened at 1 μM
T1 construct: made in house; host or cells: E. coli BL21-derived host (T7 phage) or HEK-293 cells
Procedure: (§1) Compounds 1 and C-1 were screened against other kinases to evaluate their selectivity profile.
(§2) Kinase-tagged T7 phage strains were grown in parallel in 24-well blocks in an E. coli host derived from the BL21 strain. E. coli were grown to log-phase and infected with T7 phage from a frozen stock (multiplicity of infection=0.4) and incubated with shaking at 32° C. until lysis (90-150 minutes). The lysates were centrifuged (6,000×g) and filtered (0.2 μm) to remove cell debris. The remaining kinases were produced in HEK-293 cells and subsequently tagged with DNA for qPCR detection.
(§3) Streptavidin-coated magnetic beads were treated with biotinylated small molecule ligands for 30 minutes at room temperature to generate affinity resins for kinase assays. The liganded beads were blocked with excess biotin and washed with blocking buffer (SeaBlock (Pierce), 1% BSA, 0.05% Tween 20, 1 mM DTT) to remove unbound ligand and to reduce non-specific phage binding. Binding reactions were assembled by combining kinases, liganded affinity beads, and test compounds in 1× binding buffer (20% SeaBlock, 0.17×PBS, 0.05% Tween 20, 6 mM DTT). Test compounds were prepared as 40× stocks in 100% DMSO and directly diluted into the assay. All reactions were performed in polypropylene 384-well plates in a final volume of 0.04 ml. […] The kinase concentration in the eluates was measured by qPCR. […]

JAK3 = biological target: T2, JAK3 (Homo sapiens, UniProt P52333); test: Biochemical JAK kinase assay (LanthaScreen), JAK3; details: converted from pIC50 by Cheng-Prusoff; 1.6 μM ATP; read-out: JAK 3 pKi (converted)
T2 construct: GST; purchased Life Technologies
T2 sequence (P52333 whole entry): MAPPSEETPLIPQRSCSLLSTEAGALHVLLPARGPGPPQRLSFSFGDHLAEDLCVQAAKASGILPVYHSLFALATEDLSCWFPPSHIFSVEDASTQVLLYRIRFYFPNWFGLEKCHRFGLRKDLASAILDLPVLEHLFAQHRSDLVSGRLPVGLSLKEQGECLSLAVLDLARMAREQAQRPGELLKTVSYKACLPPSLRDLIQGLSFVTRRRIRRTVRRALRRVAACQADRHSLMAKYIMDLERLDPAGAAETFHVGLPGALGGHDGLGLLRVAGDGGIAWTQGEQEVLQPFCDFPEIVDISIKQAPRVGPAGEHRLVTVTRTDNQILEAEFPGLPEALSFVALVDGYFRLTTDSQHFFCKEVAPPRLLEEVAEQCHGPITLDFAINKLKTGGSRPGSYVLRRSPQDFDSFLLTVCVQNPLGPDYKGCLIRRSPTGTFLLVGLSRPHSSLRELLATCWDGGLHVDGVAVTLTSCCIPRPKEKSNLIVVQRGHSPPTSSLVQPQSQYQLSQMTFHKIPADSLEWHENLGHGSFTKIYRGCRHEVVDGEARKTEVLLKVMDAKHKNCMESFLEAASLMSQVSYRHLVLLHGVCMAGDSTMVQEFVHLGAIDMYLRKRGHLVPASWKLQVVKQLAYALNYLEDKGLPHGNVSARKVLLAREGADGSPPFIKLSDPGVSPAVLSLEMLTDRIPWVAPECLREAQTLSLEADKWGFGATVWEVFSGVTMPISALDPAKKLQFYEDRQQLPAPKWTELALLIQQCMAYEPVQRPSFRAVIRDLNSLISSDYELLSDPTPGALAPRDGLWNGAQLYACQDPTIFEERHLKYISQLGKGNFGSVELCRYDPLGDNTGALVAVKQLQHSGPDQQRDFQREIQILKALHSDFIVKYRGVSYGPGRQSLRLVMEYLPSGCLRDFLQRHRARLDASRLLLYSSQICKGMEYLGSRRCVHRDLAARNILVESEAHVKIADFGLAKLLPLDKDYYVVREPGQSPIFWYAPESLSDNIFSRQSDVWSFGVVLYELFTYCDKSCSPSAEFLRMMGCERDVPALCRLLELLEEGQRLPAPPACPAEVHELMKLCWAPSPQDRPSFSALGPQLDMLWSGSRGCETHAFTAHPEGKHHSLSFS
Procedure: (§4) A panel of four LanthaScreen JAK biochemical assays (JAK1, 2, 3 and Tyk2) were carried in a common kinase reaction buffer (50 mM HEPES, pH 7.5, 0.01% Brij-35, 10 mM MgCl2, and 1 mM EGTA). Recombinant GST-tagged JAK enzymes and a GFP-tagged STAT1 peptide substrate were obtained from Life Technologies.
(§5) Serially diluted compound was pre-incubated with each of the four JAK enzymes and the substrate in white 384-well microplates (Corning) at ambient temperature for 1 h. ATP was subsequently added to initiate the kinase reactions in 10 μL total volume, with 1% DMSO. […] The plates were allowed to incubate at ambient temperature for 1 h before being read on the EnVision reader (Perkin Elmer). Emission ratio signals (520 nm/495 nm) were recorded and utilized to calculate the percent inhibition values based on DMSO and background controls.
(§6) For dose-response analysis, percent inhibition data were plotted vs. compound concentrations, and IC50 values were determined from a 4-parameter robust fit model with the Prism software (GraphPad Software). Results were expressed as pIC50 (negative logarithm of IC50) and subsequently converted to pKi (negative logarithm of dissociation constant, Ki) using the Cheng-Prusoff equation.

CDK2 = biological target: T3, CDK2 (Homo sapiens, UniProt P24941); test: Kinome screen, CDK2; format: binding; details: screened at 1 μM
T3 construct: made in house; host or cells: E. coli BL21-derived host (T7 phage) or HEK-293 cells
Procedure: as §1, §2, §3

AURKA = biological target: T4, AURKA (Homo sapiens, UniProt O14965); test: Kinome screen, AURKA; format: binding; details: screened at 1 μM
T4 construct: made in house; host or cells: E. coli BL21-derived host (T7 phage) or HEK-293 cells
T4 sequence (O14965 whole entry): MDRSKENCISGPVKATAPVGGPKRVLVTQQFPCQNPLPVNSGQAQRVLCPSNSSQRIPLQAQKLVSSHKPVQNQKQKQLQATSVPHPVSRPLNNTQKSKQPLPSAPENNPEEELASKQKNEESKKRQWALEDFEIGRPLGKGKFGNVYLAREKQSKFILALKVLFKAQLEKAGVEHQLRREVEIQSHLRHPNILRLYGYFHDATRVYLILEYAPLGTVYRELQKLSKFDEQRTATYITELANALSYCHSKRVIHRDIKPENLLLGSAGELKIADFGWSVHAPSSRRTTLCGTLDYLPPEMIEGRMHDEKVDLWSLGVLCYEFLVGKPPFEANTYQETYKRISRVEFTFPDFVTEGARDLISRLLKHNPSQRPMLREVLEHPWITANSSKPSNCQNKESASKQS
Procedure: as §1, §2, §3

[1] = tested on: IL-6 trans-signaling (IL6+sIL6Rα)-induced STAT3 phosphorylation in HRMECs; test: Inhibition of IL-6 trans-signaling stimulated p-STAT3 in primary human retinal microvascular endothelial cells; format: cell-based; details: HRMEC, 500 pM IL-6, 5 nM sIL6Rα, three independent experiments, read-out: pIC50, inhibition of IL-6 trans-signaling stimulated p-STAT3 (converted)
Procedure: The cellular potency of the test compound toward inhibition of IL-6 trans-signaling (IL6+sIL6Rα)-induced STAT3 phosphorylation was measured in primary human retinal microvascular endothelial cells (HRMECs). IL-6 trans-signaling is mediated by IL-6 receptor beta (gp130), which is intracellularly coupled to JAK enzymes. Following gp130 engagement and dimerization, JAKs are activated and directly phosphorylate STAT3. Thus, this assay provides a measure of JAK cellular potency. HRMECs (Cell Systems, Kirkland Wash.) were plated in sterile, tissue culture treated, flat-bottom 96-well assay plates coated with Attachment Factor™ (Cell Systems, Kirkland Wash.) at a density of 1×10^4 cells per well. HRMEC cultures were grown for 3 days at 37° C., 95% humidity, 5% CO2 in culture media supplemented with 10% fetal bovine serum, Culture Boost™ growth factors, and BacOff® antibiotic (Cell Systems, Kirkland Wash.). […] To determine the inhibitory potency of the test compound, levels of p-STAT3 were measured using AlphaLISA® SureFire® Ultra™ p-STAT3 (Tyr705) assay kit (PerkinElmer) according to manufacturer's instructions. IC50 values were determined from inhibition curves of % p-STAT3 Alpha Signal vs test compound concentration (curve fitting conducted with GraphPad Prism 7.0). Data are expressed as pIC50 (negative log10(test compound concentration)).

JAK1 = biological target: T5, JAK1 (Homo sapiens, UniProt P23458); test: Biochemical JAK kinase assay (LanthaScreen), JAK1; details: converted from pIC50 by Cheng-Prusoff; 25 μM ATP; read-out: JAK 1 pKi (converted)
T5 construct: GST; purchased Life Technologies
T5 sequence (P23458 whole entry): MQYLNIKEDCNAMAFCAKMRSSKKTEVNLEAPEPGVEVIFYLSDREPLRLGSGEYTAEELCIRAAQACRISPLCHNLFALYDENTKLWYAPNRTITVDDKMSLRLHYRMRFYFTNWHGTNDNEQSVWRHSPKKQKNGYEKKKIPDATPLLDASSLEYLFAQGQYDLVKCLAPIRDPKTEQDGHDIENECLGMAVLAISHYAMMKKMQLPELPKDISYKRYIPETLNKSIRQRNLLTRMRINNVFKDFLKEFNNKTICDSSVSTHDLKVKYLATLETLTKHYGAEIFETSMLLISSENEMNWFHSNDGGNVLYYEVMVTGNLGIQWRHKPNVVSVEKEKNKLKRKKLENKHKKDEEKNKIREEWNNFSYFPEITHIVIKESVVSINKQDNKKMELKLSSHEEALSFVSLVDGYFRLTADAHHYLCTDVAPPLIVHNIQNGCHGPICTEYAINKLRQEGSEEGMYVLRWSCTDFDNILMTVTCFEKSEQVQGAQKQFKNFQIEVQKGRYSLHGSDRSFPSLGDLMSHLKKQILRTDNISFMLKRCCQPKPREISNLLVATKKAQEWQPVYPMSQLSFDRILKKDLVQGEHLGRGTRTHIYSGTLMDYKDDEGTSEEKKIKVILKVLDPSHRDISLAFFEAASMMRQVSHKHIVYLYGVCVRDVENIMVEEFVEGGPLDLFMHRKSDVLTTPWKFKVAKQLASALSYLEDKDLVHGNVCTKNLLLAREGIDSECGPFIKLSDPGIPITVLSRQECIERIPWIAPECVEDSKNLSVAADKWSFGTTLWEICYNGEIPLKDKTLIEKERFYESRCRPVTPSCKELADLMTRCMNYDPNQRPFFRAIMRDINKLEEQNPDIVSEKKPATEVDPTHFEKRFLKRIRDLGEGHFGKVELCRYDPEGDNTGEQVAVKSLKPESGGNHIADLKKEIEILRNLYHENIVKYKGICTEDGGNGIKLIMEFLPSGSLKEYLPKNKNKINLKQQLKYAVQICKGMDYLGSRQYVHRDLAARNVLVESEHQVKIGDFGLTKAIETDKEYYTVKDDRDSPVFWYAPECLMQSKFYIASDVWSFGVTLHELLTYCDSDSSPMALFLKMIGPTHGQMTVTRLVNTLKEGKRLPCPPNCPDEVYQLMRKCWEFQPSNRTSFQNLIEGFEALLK
Procedure: as §4, §5, §6

GSK3B = biological target: T6, GSK3B (Homo sapiens, UniProt P49841); test: Kinome screen, GSK3B; format: binding; details: screened at 1 μM
T6 construct: made in house; host or cells: E. coli BL21-derived host (T7 phage) or HEK-293 cells
T6 sequence (P49841 whole entry): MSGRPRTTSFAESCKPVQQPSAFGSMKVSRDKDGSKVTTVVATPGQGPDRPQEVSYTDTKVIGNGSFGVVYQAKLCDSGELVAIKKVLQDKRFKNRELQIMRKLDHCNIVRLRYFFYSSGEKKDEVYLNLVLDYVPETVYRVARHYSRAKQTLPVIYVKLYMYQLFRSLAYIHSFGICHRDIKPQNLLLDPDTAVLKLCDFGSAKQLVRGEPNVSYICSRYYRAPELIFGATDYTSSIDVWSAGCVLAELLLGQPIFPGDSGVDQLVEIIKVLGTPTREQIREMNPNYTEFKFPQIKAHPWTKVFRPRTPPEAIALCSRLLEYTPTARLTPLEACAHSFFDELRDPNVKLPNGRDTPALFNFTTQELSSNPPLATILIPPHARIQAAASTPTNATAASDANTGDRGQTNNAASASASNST
Procedure: as §1, §2, §3

T1 sequence (P12931 whole entry): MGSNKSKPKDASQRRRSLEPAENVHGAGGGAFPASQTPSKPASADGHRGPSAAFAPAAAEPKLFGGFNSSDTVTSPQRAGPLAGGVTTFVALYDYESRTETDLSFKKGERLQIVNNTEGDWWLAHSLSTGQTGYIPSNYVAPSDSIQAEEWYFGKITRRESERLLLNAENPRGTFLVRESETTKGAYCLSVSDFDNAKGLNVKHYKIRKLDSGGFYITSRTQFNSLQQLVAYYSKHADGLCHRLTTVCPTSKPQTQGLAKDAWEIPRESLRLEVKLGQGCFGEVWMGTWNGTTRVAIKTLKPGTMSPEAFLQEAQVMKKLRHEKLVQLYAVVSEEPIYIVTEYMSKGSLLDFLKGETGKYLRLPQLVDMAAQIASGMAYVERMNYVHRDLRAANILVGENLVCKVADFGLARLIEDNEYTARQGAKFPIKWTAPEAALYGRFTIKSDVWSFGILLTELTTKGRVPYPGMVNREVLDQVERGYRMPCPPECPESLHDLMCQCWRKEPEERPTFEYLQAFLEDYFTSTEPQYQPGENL

`CCc1cc(O)c(F)cc1-c1cc(F)c2c(-c3nc4c([nH]3)CCN(C(=O)[C@]35C[C@H]3CCN5)C4)n[nH]c2c1` [Compound 1, (1S,5R)-2-azabicyclo[3.1.0]hexan-1-yl(2-(6-(2-ethyl-5-fluoro-4-hydroxyphenyl)-4-fluoro-1H-indazol-3-yl)-6,7-dihydro-3H-imidazo[4,5-c]pyridin-5(4H)-yl)methanone] gave an inhibition at 1 µM (SRC) of 65%, a Ki (JAK3) of 0.251 nM and an inhibition at 1 µM (CDK2) of 1%. For the same compound, the inhibition at 1 µM (AURKA) was 26%, the IC50 [1] was 501 nM and the Ki (JAK1) was 0.126 nM. It also gave an inhibition at 1 µM (GSK3B) of 32%.
